Assay results from paper PMC7178833, “Preparation, carbonic anhydrase enzyme inhibition and antioxidant activity of novel 7-amino-3,4-dihydroquinolin-2(1H)-one derivatives incorporating mono or dipeptide moiety” (Journal of Enzyme Inhibition and Medicinal Chemistry, 2020).
pKi: −log10 of the molar value.

What was measured:
hCA I = hCA I (Homo sapiens, UniProt P00915); experiment: stopped flow CO2 hydrase assay, hCA I; format: biochemical; conditions: mean from three different assays
Method: (§1) An Applied Photophysics Stopped-Flow instrument has been used for assaying the CA catalysed CO2 hydration activity by using method of Khalifah[21]. Phenol red (at a concentration of 0.2 mM) has been used as indicator, working at the absorbance maximum of 557 nm, with 20 mM HEPES (pH 7.5) as buffer and 20 mM Na2SO4 (for maintaining constant the ionic strength), following the initial rates of the CA-catalysed CO2 hydration reaction for a period of 10–100 s. The CO2 concentrations ranged from 1.7 to 17 mM for the determination of the kinetic parameters and inhibition constants. […] The uncatalysed rates were determined in the same manner and subtracted from the total observed rates. Stock solutions of inhibitor (0.1 mM) were prepared in distilled–deionised water and dilutions up to 0.01 nM were done thereafter with the assay buffer. Inhibitor and enzyme solutions were pre-incubated together for 15 min at room temperature prior to assay, in order to allow for the formation of the E–I complex. The inhibition constants were obtained by non-linear least-square methods using PRISM (www.graphpad.com), and non-linear least squares methods, values representing the mean of at least three different determinations, as described earlier by us[22–27].

hCA II = hCA II (Homo sapiens, UniProt P00918); experiment: stopped flow CO2 hydrase assay, hCA II; format: biochemical; conditions: mean from three different assays, read-out: Ki hCAII
Method: as §1

hCA IX = hCA IX (Homo sapiens, UniProt Q16790); experiment: stopped flow CO2 hydrase assay, hCA IX; format: biochemical; conditions: mean from three different assays
Method: as §1

hCA XII = hCA XII (Homo sapiens, UniProt O43570); experiment: stopped flow CO2 hydrase assay, hCA XII; format: biochemical; conditions: mean from three different assays
Method: as §1

[1] = DPPH radical scavenging activity
Method: Antioxidant activity was determined based on the ability of the antioxidants to act as radical scavengers towards the stable free radical, 1,1-diphenyl-2-picrylhydrazyl (DPPH). As detailed by Yang et al[28], 1 ml of antioxidant solution (solubilised in ethanol) was added to 3 ml of a 0.1 mM ethanolic solution of DPPH. After 30 min at ambient temperature in darkness, absorbance readings were taken at 517 nm. Inhibition (%) was calculated using the equation [1 – (As−Ao)/Ab]×100 where As was the absorbance reading for samples containing antioxidant, Ao was the absorbance of the antioxidant in pure methanol and Ab corresponded to the absorbance of the DPPH solution.
The antioxidant activity of the compounds was determined based on the ability of the antioxidants to act as radical scavengers towards the stable free radical, 1,1-diphenyl-2-picrylhydrazyl (DPPH)[28].

Sequence of hCA I (P00915 whole entry): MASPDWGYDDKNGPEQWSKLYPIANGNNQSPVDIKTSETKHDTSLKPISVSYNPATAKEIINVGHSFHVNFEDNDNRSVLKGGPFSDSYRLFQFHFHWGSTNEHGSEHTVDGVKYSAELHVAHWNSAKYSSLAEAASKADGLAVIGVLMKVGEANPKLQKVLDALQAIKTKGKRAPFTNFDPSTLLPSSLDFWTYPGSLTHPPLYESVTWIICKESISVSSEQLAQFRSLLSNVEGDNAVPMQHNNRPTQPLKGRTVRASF
Sequence of hCA XII (O43570 25-354): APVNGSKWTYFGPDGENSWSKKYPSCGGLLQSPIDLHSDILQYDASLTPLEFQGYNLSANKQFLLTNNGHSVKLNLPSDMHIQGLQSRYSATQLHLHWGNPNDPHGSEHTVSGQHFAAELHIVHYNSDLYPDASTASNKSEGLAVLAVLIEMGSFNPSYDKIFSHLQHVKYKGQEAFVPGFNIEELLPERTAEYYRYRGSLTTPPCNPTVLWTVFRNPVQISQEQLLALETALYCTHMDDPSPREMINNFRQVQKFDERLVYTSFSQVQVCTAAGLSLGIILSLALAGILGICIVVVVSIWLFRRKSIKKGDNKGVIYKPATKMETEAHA

Row | pKi (hCA I) | pKi (hCA II) | pKi (hCA IX) | pKi (hCA XII) | melting point | Compound | Antioxidant activity, % ([1]; 12.5 μg/ml) | Antioxidant activity, % ([1]; 25 μg/ml) | Antioxidant activity, % ([1]; 37.5 μg/ml) | Antioxidant activity, % ([1]; 62.5 μg/ml) | Antioxidant activity, % ([1]; 125 μg/ml)
1 | < 4.00 | < 4.00 | 4.06 | 5.70 | 197 to 198 °C | C[C@@H](NC(=O)OC(C)(C)C)C(=O)Nc1ccc2c(c1)NC(=O)CC2 (stereo in doubt) [Compound 1, Tert-butyl (R)-(1-oxo-1-((2-oxo-1,2,3,4-tetrahydroquinolin-7-yl)amino)propan-2-yl)carbamate] | 3.8% | 2.2% | 2.5% | 1.6% | 0.6%
2 | < 4.00 | < 4.00 | 4.39 | 5.42 | 180 to 181 °C | CC(C)(C)OC(=O)N[C@H](Cc1ccccc1)C(=O)Nc1ccc2c(c1)NC(=O)CC2 (stereo in doubt) [Compound 2, Tert-butyl (R)-(1-oxo-1-((2-oxo-1,2,3,4-tetrahydroquinolin-7-yl)amino)-3-phenylpropan-2-yl)carbamate] | 3.1% | 2.2% | 0.0% | 0.9% | 0.6%
3 | < 4.00 | < 4.00 | 4.37 | 5.07 | 171 to 172 °C | CSCC[C@H](NC(=O)OC(C)(C)C)C(=O)Nc1ccc2c(c1)NC(=O)CC2 (stereo in doubt) [Compound 3, Tert-butyl (S)-(4-(methylthio)-1-oxo-1-((2-oxo-1,2,3,4-tetrahydroquinolin-7-yl)amino)butan-2-yl)carbamate] | 0.9% | 0.3% |  |  | 
4 | < 4.00 | < 4.00 | 4.18 | 5.24 | 150 to 151 °C | O=C1CCc2ccc(NC(=O)[C@H](CSc3ccccc3)NC(=O)OCc3ccccc3)cc2N1 (stereo in doubt) [Compound 4, Benzyl (R)-(1-oxo-1-((2-oxo-1,2,3,4-tetrahydroquinolin-7-yl)amino)-3-(phenylthio)propan-2-yl)carbamate] | 2.5% | 1.6% | 0.9% | 2.2% | 1.6%
5 | < 4.00 | < 4.00 | 4.42 | 5.15 | 137 to 138 °C | CSCC[C@H](NC(=O)OCc1ccccc1)C(=O)Nc1ccc2c(c1)NC(=O)CC2 (stereo in doubt) [Compound 5, Benzyl (S)-(4-(methylthio)-1-oxo-1-((2-oxo-1,2,3,4-tetrahydroquinolin-7-yl)amino)butan-2-yl)carbamate] | 2.8% | 1.9% | 1.9% | 2.8% | 2.8%
6 |  |  |  |  |  | COc1ccc(O)c(C(C)(C)C)c1 [BHA, reference compound] | 61.1% | 63.0% | 67.5% | 71.0% | 72.4%
7 |  |  |  |  |  | Cc1c(C)c2c(c(C)c1O)CC[C@@](C)(CCC[C@H](C)CCC[C@H](C)CCCC(C)C)O2 [α-Toc., α-tocopherol, reference compound] | 62.9% | 63.4% | 68.4% | 72.8% | 74.0%

Row | Compound | pKi (hCA I) | pKi (hCA II) | pKi (hCA IX) | pKi (hCA XII) | melting point | Antioxidant activity, % ([1]; 12.5 μg/ml) | Antioxidant activity, % ([1]; 25 μg/ml) | Antioxidant activity, % ([1]; 37.5 μg/ml) | Antioxidant activity, % ([1]; 62.5 μg/ml) | Antioxidant activity, % ([1]; 125 μg/ml)
8 | Benzyl ((R)-1-oxo-1-(((S)-1-oxo-1-((2-oxo-1,2,3,4-tetrahydroquinolin-6-yl)amino)-3-phenylpropan-2-yl)amino)-3-phenylpropan-2-yl)carbamate [Compound 6] | < 4.00 | < 4.00 | 4.32 | 5.07 |  | 1.9% | 6.3% | 8.8% | 16.4% | 
